According to ChEMBL document CHEMBL1144828, “Isoxazolone based inhibitors of p38 MAP kinases” (J Med Chem, 2008):

Molecular target: T1, Mitogen-activated protein kinase 14 (Homo sapiens, UniProt Q16539)
Experiment: Inhibition of p38-alpha MAPK at 10 uM

T1 sequence (Q16539 whole entry): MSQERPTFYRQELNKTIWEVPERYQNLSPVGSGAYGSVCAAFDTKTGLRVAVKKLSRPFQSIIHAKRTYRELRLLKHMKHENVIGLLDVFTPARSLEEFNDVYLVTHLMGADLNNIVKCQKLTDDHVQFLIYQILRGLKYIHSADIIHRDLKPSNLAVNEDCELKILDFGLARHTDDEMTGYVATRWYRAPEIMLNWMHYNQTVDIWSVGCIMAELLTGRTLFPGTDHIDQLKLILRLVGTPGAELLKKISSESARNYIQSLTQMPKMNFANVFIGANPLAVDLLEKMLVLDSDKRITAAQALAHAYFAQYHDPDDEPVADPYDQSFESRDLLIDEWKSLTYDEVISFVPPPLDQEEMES

| inhibition [%] | SMILES |
| --- | --- |
| 42.2 | CC(C)n1oc(=O)c(-c2ccc(F)cc2)c1-c1ccncc1 |
| 9.8 | OCCCOc1onc(-c2ccc(F)cc2)c1-c1ccncc1 |
| 26.4 | Fc1ccc(-c2noc(OCC3CC3)c2-c2ccncc2)cc1 |
| 13.6 | CCOc1onc(-c2ccc(F)cc2)c1-c1ccncc1 |
| 27.5 | CC(c1ccccc1)n1oc(=O)c(-c2ccc(F)cc2)c1-c1ccncc1 (stereo unspecified) |
| 14.7 | OCCOc1onc(-c2ccc(F)cc2)c1-c1ccncc1 |
| 27.8 | COCOc1onc(-c2ccc(F)cc2)c1-c1ccncc1 |
| 11.9 | CC(C)Oc1onc(-c2ccc(F)cc2)c1-c1ccncc1 |
| 26.5 | COc1onc(-c2ccc(F)cc2)c1-c1ccncc1 |
| 41.9 | O=C1c2ccccc2C(=O)N1CCn1oc(=O)c(-c2ccc(F)cc2)c1-c1ccncc1 |
| 14.4 | COCCOc1onc(-c2ccc(F)cc2)c1-c1ccncc1 |
| 38.3 | O=c1on(CCN2CCCCC2)c(-c2ccncc2)c1-c1ccc(F)cc1 |
| 23.7 | Fc1ccc(-c2noc(OCC3CO3)c2-c2ccncc2)cc1 (stereo unspecified) |

Molecular target: T1, Mitogen-activated protein kinase 14
Experiment: Inhibition of p38-alpha MAPK

| IC50 [nM] | SMILES |
| --- | --- |
| 230 | CCNC(=O)n1oc(=O)c(-c2ccc(F)cc2)c1-c1ccncc1 |
| 2130 | COCn1oc(=O)c(-c2ccc(F)cc2)c1-c1ccncc1 |
| 1150 | O=c1on(CCCO)c(-c2ccncc2)c1-c1ccc(F)cc1 |
| 480 | Cc1ccc(S(=O)(=O)n2oc(=O)c(-c3ccc(F)cc3)c2-c2ccncc2)cc1 |
| 3830 | COCCOCn1oc(=O)c(-c2ccc(F)cc2)c1-c1ccncc1 |
| 3830 | O=c1on(CC2CO2)c(-c2ccncc2)c1-c1ccc(F)cc1 (stereo unspecified) |
| 1630 | CCn1oc(=O)c(-c2ccc(F)cc2)c1-c1ccncc1 |
| 350 | O=c1on(C(=S)Nc2ccc(F)cc2)c(-c2ccncc2)c1-c1ccc(F)cc1 |
| 390 | Oc1onc(-c2ccncc2)c1-c1ccc(F)cc1 |
| 2500 | O=c1on(CCO)c(-c2ccncc2)c1-c1ccc(F)cc1 |
| 1320 | CCOCCn1oc(=O)c(-c2ccc(F)cc2)c1-c1ccncc1 |
| 2130 | O=c1on(CC2CC2)c(-c2ccncc2)c1-c1ccc(F)cc1 |
| 1400 | O=c1o[nH]c(-c2ccc(F)cc2)c1-c1ccncc1 |
| 320 | O=C(Nc1ccc(F)cc1)n1oc(=O)c(-c2ccc(F)cc2)c1-c1ccncc1 |
| 970 | CCOC(=O)CCNC(=O)n1oc(=O)c(-c2ccc(F)cc2)c1-c1ccncc1 |
| 120 | CC(=O)n1oc(=O)c(-c2ccc(F)cc2)c1-c1ccncc1 |
| 813 | CSc1nc(-c2ccc(F)cc2)c(-c2ccncc2)n1CCCO |
| 3900 | CSCCn1oc(=O)c(-c2ccc(F)cc2)c1-c1ccncc1 |
